Source: PubChem BioAssay (NCI)
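Cells were grown in 96-well plates and exposed to each compound for 48 hours at five concentrations; endpoints were interpolated linearly between bracketing concentrations, or set to the highest concentration if not reached. TGI denotes the concentration required for complete inhibition of growth.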

Assays:
Assay in all cases: NCI tumour cell line growth inhibition, 48 h
786-0 renal = system: 786-0 renal
A498 renal = system: A498 renal
CCRF-CEM leukemia = system: CCRF-CEM leukemia
DU-145 prostate = system: DU-145 prostate
EKVX NSCLC = system: EKVX NSCLC
MCF7 breast = system: MCF7 breast
MDA-MB-231 breast = system: MDA-MB-231 breast
MDA-MB-435 = system: MDA-MB-435
MDA-N = system: MDA-N
NCI/ADR-RES ovarian = system: NCI/ADR-RES ovarian
OVCAR-4 ovarian = system: OVCAR-4 ovarian
SF-268 CNS = system: SF-268 CNS
SK-MEL-28 melanoma = system: SK-MEL-28 melanoma
SW-620 colon = system: SW-620 colon

SMILES	TGI (786-0 renal) [µM]	TGI (A498 renal) [µM]	TGI (CCRF-CEM leukemia) [µM]	TGI (DU-145 prostate) [µM]	TGI (EKVX NSCLC) [µM]	TGI (MCF7 breast) [µM]	TGI (MDA-MB-231 breast) [µM]	TGI (MDA-MB-435) [µM]	TGI (MDA-N) [µM]	TGI (NCI/ADR-RES ovarian) [µM]	TGI (OVCAR-4 ovarian) [µM]	TGI (SF-268 CNS) [µM]	TGI (SK-MEL-28 melanoma) [µM]	TGI (SW-620 colon) [µM]
Clc1cc(Cl)cc(C2ON=C(c3ccccc3)N2C23CC4CC(CC(C4)C2)C3)c1 (stereo not drawn)	> 10	> 10	> 10	> 10	> 10	> 10	> 10	> 10	> 10	> 10	> 10	> 10	> 10	> 10
COC(CC1(/C=C/O[Si](C(C)C)(C(C)C)C(C)C)C(=O)N(C)c2ccccc21)OC (stereo not drawn)	71.6	> 100	> 100	> 100	> 100	> 100	> 100	> 100	> 100	78.4	> 100	> 100	> 100	> 100
CCC[C@H](NS(=O)c1ccc(C)cc1)C(C(=O)OCC)=C(c1ccccc1)c1ccccc1 (stereo partly drawn)	35.9	46	> 100	36.7	38.6	43.2	> 100	35	43.2	> 100	49	> 100	58	> 100
Cc1nc2c(=O)n(-c3ccccc3)c3ccccc3c2o1	> 100	> 100	> 100	> 100	> 100	> 100	> 100	> 100	> 100	> 100	> 100	> 100	> 100	> 100
CC(C)(C)Nc1noc(=O)n1C(C)(C)C	> 100	> 100	> 100	> 100	> 100	> 100	> 100	> 100	> 100	> 100	> 100	> 100	> 100	> 100
COC(=O)c1c(O)ccc2c1c1c(n2Cc2ccc(Cl)cc2Cl)C(=O)c2ccccc2C1=O	22.9	33.7	29.9	31.2	24.5	15.9	23.5	20.6	29.5	24.1	11.6	24.6	30	32.4
CN(C)P(=O)(Oc1ccc(CC(NC(=O)OCc2ccccc2)C(=O)OCc2ccccc2)cc1)N(C)C (stereo not drawn)	17.5	38.1	7.56	29.2	32.2	31.6	34.3	25.7	34	36.2	39.1	27.8	34.4	45.8
CC1=C/C(=N\O)C(C(O)(C(F)(F)F)C(F)(F)F)C(C)(C)C1 (stereo not drawn)	> 10	> 10	> 10	> 10	> 10	> 10	> 10	> 10	> 10	> 10	> 10	> 10	> 10	> 10
CN(C)CCN=C1Nc2ccccc2C(=S)N2CSCC12 (stereo not drawn)	> 100	> 100	> 100	> 100	> 100	> 100	> 100	> 100	> 100	> 100	> 100	> 100	> 100	> 100
CC(=O)Nc1ccc(-c2nc3ccccc3s2)cc1I	44.5	36.3	> 100	> 51	80.1	> 59.5	> 65.1	> 100	> 100	> 96.3	> 100	97.4	> 100	> 100
CCc1n[nH]c(=O)n1/N=C/c1ccc(C)cc1	> 100	> 100	> 100	> 100	> 100	> 100	> 100	> 100	> 100	> 100	> 100	> 100	> 100	> 100
COc1ccc(OCc2ccc3nc(-c4ccccc4)c(Cl)nc3c2)cc1	32.6	81.2	45.4	> 100	> 100	> 100	37.9	> 100	> 100	> 100	95.4	> 100	> 100	> 100
